Measured values published in patent US8975248B2, “Combinations of therapeutic agents for treating cancer” (Sigma-Tau Industrie Farmaceutiche Riunite S.p.A., priority 2004, dated 2015).
Like-named read-outs stand apart in the source and are kept apart here.

Experiments:
[1] = tested on: NCI-H460 NSCLC; experiment: Antitumor activity against NCI-H460 xenograft (paclitaxel); conditions: for reduction of the tumor volume: 5 days for 3 cycles
Procedure: (§2) Mice are treated with 3 intravenously doses of paclitaxel at days 3, 10, 17 after tumor injection. […] Treatments in NCI-H460 tumor model are performed in the following groups of 8 mice each: • 1. Vehicle • 2. 50 mg/15 ml/kg, i.v. of paclitaxel (3, 10, 17) • 3. […] 25 mg/15 ml/kg, i.v. of paclitaxel (3, 10, 17) • 5.

[2] = tested on: MCF-7 human breast ca.; experiment: Antitumor activity against MCF-7 breast carcinoma xenograft; conditions: for BWL % (body weight loss): in vivo, po
Procedure: The pellets are placed in the inter scapular region one day before the tumor cells inoculation. 8 mice/group are treated 6 days after tumor injection with the following drugs: • 1. Vehicle • 2.

[3] = tested on: DU145 prostate carcinoma; experiment: Antitumor activity against DU145 xenograft; conditions: for BWL % (body weight loss): in vivo, po
Procedure: 8 mice/group are treated 14 days after tumor injection with the following drugs: • 1. Vehicle • 2.
8 mice/group are also treated 14 days after tumor injection with the following drugs: • 1. […] Docetaxel 20 mg/10 mi/kg, i.p., (q7dx3, days 14, 21, 28). • 3. Combination groups: 7-t-butoxyiminomethylcamptothecin+docetaxel 0.17+20.

[4] = tested on: MDA MB 435S human breast cancer; experiment: Antitumor activity against MDA MB 435S xenograft; assay type: in vivo, human (xenograft in BALB/c nu/nu mice)
Procedure: Test system: BALB/c nu/nu mice for tumor models are used.
The cells are harvested by trypsinisation, washed twice in HBSS and counted using Trypan Blue to distinguish viable cells.
Doxorubicin (either on its own or in conjunction with Gimatecan) is administered 3 times per week intravenously, via the tail vein (i.v.). • 1. Vehicle • 2.
The paired t-test is used to determine differences in body weight changes from Day 0 to Day 13 for groups 14 and 15 and from Day 0 to Day 20 for all other groups (Table 4). All calculations are done using SigmaStat 3.0. The one way ANOVA procedure is used for statistical calculations of differences in the tumor volumes.

[5] = tested on: A2780 ovarian carcinoma; experiment: Antitumor activity against A2780 ovarian carcinoma xenograft; assay type: in vivo, human (s.c. xenograft in CD1 nu/nu mice)
Procedure: Vehicle • 2. […] Oxaliplatin 7 mg/10 ml/kg and 4.7 mg/10 ml/kg, i.p. (q4dx2, days 3, 7). • 4. Combination groups: 7-t-butoxyiminomethylcamptothecin+oxaliplatin: 0.28+7, 0.28+4.7, 0.19+7, 0.19+4.7. • 5. […] Oxaliplatin 7 mg/10 ml/kg, i.p. (q7dx2, days 3, 10). • 7. Combination groups: 7-t-butoxyiminomethylcamptothecin+oxaliplatin 0.19+7.
7-8 mice/group are treated 3 days after tumor injection with the following drugs. • 1. Vehicle • 2. […] Carboplatin 50 mg/10 ml/kg, i.p. (q7dx2, days 3, 10). • 7. Combination groups: 7-t-butoxyiminomethylcamptothecin+carboplatin 0.19+50.
(§1) In all the combination groups, the drug were administered 1 h before 7-t butoxyiminomethylcamptothecin.

[6] = tested on: NCI-H460 NSCLC; conditions: in vivo, po
Procedure: as §2

[7] = Maximum tolerated dose (MTD) in tumor-bearing mice; assay type: in vivo
[8] = tested on: NCI-H460 non-small cell lung carcinoma; experiment: Antitumor activity against NCI-H460 xenograft (docetaxel, carboplatin); assay type: in vivo, human (xenograft in CD1 nu/nu mice)
[9] = tested on: A2780/DDP platinum-resistant ovarian carcinoma; experiment: Antitumor activity against A2780/DDP xenograft; assay type: in vivo, human (xenograft in CD1 nu/nu mice)
Procedure: 8 mice/group are treated 3 days after tumor injection with the following drugs. • 1. Vehicle • 2.
as §1

[10] = A 0.08 mg/kg p.o. qdx5/w, 3 cycles
[11] = A 0.28 mg/kg p.o. qdx5/w, 0.28 mg/kg
[12] = docetaxel 20 mg/kg i.p. q3-4dx2
[13] = carboplatin 50 mg/kg i.p. q4dx2

In the case of `CC[C@@]1(O)C(=O)OCc2c1cc1n(c2=O)Cc2c-1nc1ccccc1c2/C=N/OC(C)(C)C` [A], the “T/C % (TW in treated mice/TW in control mice × 100)” value [1, 10] is reported as 59.5%, the “Tox (dead/treated mice)” value [1, 10] is reported as 0/8 and the “T/C % (TW in treated mice/TW in control mice × 100)” value ([1]; A 0.125 mg/kg p.o. qdx5/w, 3 cycles) is reported as 9.9%. For the same compound, the “Tox (dead/treated mice)” value ([1]; A 0.125 mg/kg p.o. qdx5/w, 3 cycles, 0.125 mg/kg) was 0/8, the “reduction of the tumor volume” value ([1]; A 0.125 mg/kg) was roughly 90% and the “T/C % (TW in treated mice/TW in control mice × 100)” value ([1]; A 0.25 mg/kg p.o. qdx5/w, 3 cycles) was 1.5%. The “Tox (dead/treated mice)” value ([1]; A 0.25 mg/kg p.o. qdx5/w, 3 cycles, 0.25 mg/kg) was 0/8, the “reduction of the tumor volume” value ([1]; A 0.25 mg/kg) was “about 99%” and the “CR (complete response)” value ([2]; A 0.19 mg/kg p.o. qdx5/w) was 1/8. The “TVI % (tumor volume inhibition)” value ([2]; A 0.19 mg/kg p.o. qdx5/w) was 81%, the “Tox (dead/treated mice)” value ([2]; A 0.19 mg/kg p.o. qdx5/w) was 2/8 and the “TVI % (tumor volume inhibition)” value ([2]; A 0.28 mg/kg p.o. qdx5/w) was 70%. For the same compound, the “Tox (dead/treated mice)” value ([2]; A 0.28 mg/kg p.o. qdx5/w) was 1/8, the “CR (complete response)” value [2, 11] was 1/8 and the “BWL % (body weight loss)” value ([2]; 0.19 mg/kg) was 10%. The “BWL % (body weight loss)” value ([2]; 0.28 mg/kg) was 9%, the “CR (complete response)” value ([3]; A 0.19 mg/kg p.o. qdx5/w) was 0/8 and the “LCK (log10 cell kill)” value ([3]; A 0.19 mg/kg p.o. qdx5/w) was 0.28. For the same compound, the “TVI % (tumor volume inhibition)” value ([3]; A 0.19 mg/kg p.o. qdx5/w) was 25%, the “Tox (dead/treated mice)” value ([3]; A 0.19 mg/kg p.o. qdx5/w) was 0/8 and the “CR (complete response)” value ([3]; A 0.25 mg/kg p.o. qdx5/w) was 0/8. The “LCK (log10 cell kill)” value ([3]; A 0.25 mg/kg p.o. qdx5/w) was 0.28, the “TVI % (tumor volume inhibition)” value ([3]; A 0.25 mg/kg p.o. qdx5/w) was 53% and the “Tox (dead/treated mice)” value ([3]; A 0.25 mg/kg p.o. qdx5/w) was 0/8. For the same compound, the “BWL % (body weight loss)” value ([3]; 0.19 mg/kg) was 4%, the “BWL % (body weight loss)” value ([3]; 0.25 mg/kg) was 8% and the “BWL % (body weight loss)” value ([4]; A 0.07 mg/kg p.o. qdx5/w) was “(+2.5) %”. The T/C % ([4]; A 0.07 mg/kg p.o. qdx5/w) was 93%, the “Tox (dead/treated mice)” value ([4]; A 0.07 mg/kg p.o. qdx5/w) was 9/9 and the “BWL % (body weight loss)” value ([4]; A 0.14 mg/kg p.o. qdx5/w) was 1%. The T/C % ([4]; A 0.14 mg/kg p.o. qdx5/w) was 46%, the “Tox (dead/treated mice)” value ([4]; A 0.14 mg/kg p.o. qdx5/w) was 0/9 and the “BWL % (body weight loss)” value ([4]; A 0.21 mg/kg p.o. qdx5/w) was 1%. The T/C % ([4]; A 0.21 mg/kg p.o. qdx5/w) was 5%, the “Tox (dead/treated mice)” value ([4]; A 0.21 mg/kg p.o. qdx5/w) was 1/9 and the “BWL % (body weight loss)” value ([5]; A 0.19 mg/kg p.o. qdx5/w) was 6%. The “CR (complete response)” value ([5]; A 0.19 mg/kg p.o. qdx5/w) was 8/8, the “LCK (log10 cell kill)” value ([5]; A 0.19 mg/kg p.o. qdx5/w) was 2.15 and the “TVI % (tumor volume inhibition)” value ([5]; A 0.19 mg/kg p.o. qdx5/w) was 100%. The “Tox (dead/treated mice)” value ([5]; A 0.19 mg/kg p.o. qdx5/w) was 0/8, the “BWL % (body weight loss)” value ([5]; A 0.19 mg/kg p.o. qdx5/wx2w) was 6% and the “CR (complete response)” value ([5]; A 0.19 mg/kg p.o. qdx5/wx2w) was 4/7. The “LCK (log10 cell kill)” value ([5]; A 0.19 mg/kg p.o. qdx5/wx2w) was 3.15, the “TVI % (tumor volume inhibition)” value ([5]; A 0.19 mg/kg p.o. qdx5/wx2w) was 100% and the “Tox (dead/treated mice)” value ([5]; A 0.19 mg/kg p.o. qdx5/wx2w) was 0/7. For the same compound, the “BWL % (body weight loss)” value ([5]; A 0.28 mg/kg p.o. qdx5/w) was 13%, the “CR (complete response)” value ([5]; A 0.28 mg/kg p.o. qdx5/w) was 8/8 and the “TVI % (tumor volume inhibition)” value ([5]; A 0.28 mg/kg p.o. qdx5/w) was 100%. The “Tox (dead/treated mice)” value ([5]; A 0.28 mg/kg p.o. qdx5/w) was 0/8, the “LCK (log10 cell kill)” value [5, 11] was 2.44 and the “BWL % (body weight loss)” value ([6]; 0.08 mg/kg) was 0%. For the same compound, the “BWL % (body weight loss)” value ([6]; 0.125 mg/kg) was 0%, the “BWL % (body weight loss)” value ([6]; 0.25 mg/kg) was 0% and the MTD at 5 days ([7]; CD1 nu/nu, mouse, in vivo, po, p.o. qdx5) was 0.28 mg/kg. For the same compound, the MTD ([7]; female, CD1 nu/nu, mouse, in vivo, oral, qdx5/w, A2780/DDP model, read-out: approximate maximum tolerated dose) was roughly 0.28 mg/kg, the MTD ([7]; male, mouse, in vivo, oral, qdx5/w, DU145 model, read-out: approximate maximum tolerated dose) was roughly 0.25 mg/kg and the “BWL % (body weight loss)” value ([8]; A 0.19 mg/kg p.o. qdx5/w) was 8%. For the same compound, the “CR (complete response)” value ([8]; A 0.19 mg/kg p.o. qdx5/w) was 1/8, the “LCK (log10 cell kill)” value ([8]; A 0.19 mg/kg p.o. qdx5/w) was 1.14 and the “TVI % (tumor volume inhibition)” value ([8]; A 0.19 mg/kg p.o. qdx5/w) was 79%. For the same compound, the “Tox (dead/treated mice)” value ([8]; A 0.19 mg/kg p.o. qdx5/w) was 0/8, the “BWL % (body weight loss)” value ([8]; A 0.19 mg/kg p.o. qdx5/wx2w) was 7% and the “CR (complete response)” value ([8]; A 0.19 mg/kg p.o. qdx5/wx2w) was 0/7. For the same compound, the “LCK (log10 cell kill)” value ([8]; A 0.19 mg/kg p.o. qdx5/wx2w) was 2.3, the “TVI % (tumor volume inhibition)” value ([8]; A 0.19 mg/kg p.o. qdx5/wx2w) was 94% and the “Tox (dead/treated mice)” value ([8]; A 0.19 mg/kg p.o. qdx5/wx2w) was 0/7. The “BWL % (body weight loss)” value ([8]; A 0.28 mg/kg p.o. qdx5/w) was 16%, the “CR (complete response)” value ([8]; A 0.28 mg/kg p.o. qdx5/w) was 0/8 and the “LCK (log10 cell kill)” value ([8]; A 0.28 mg/kg p.o. qdx5/w) was 1.45. For the same compound, the “TVI % (tumor volume inhibition)” value ([8]; A 0.28 mg/kg p.o. qdx5/w) was 94%, the “Tox (dead/treated mice)” value ([8]; A 0.28 mg/kg p.o. qdx5/w) was 1/8 and the “BWL % (body weight loss)” value ([9]; A 0.19 mg/kg p.o. qdx5/w) was 1%. The “LCK (log10 cell kill)” value ([9]; A 0.19 mg/kg p.o. qdx5/w) was 0.18, the “TVI % (tumor volume inhibition)” value ([9]; A 0.19 mg/kg p.o. qdx5/w) was 35% and the “Tox (dead/treated mice)” value ([9]; A 0.19 mg/kg p.o. qdx5/w) was 0/8. For the same compound, the “BWL % (body weight loss)” value ([9]; A 0.28 mg/kg p.o. qdx5/w) was 7%, the “LCK (log10 cell kill)” value ([9]; A 0.28 mg/kg p.o. qdx5/w) was 0.23 and the “TVI % (tumor volume inhibition)” value ([9]; A 0.28 mg/kg p.o. qdx5/w) was 46%. For the same compound, the “Tox (dead/treated mice)” value ([9]; A 0.28 mg/kg p.o. qdx5/w) was 0/8.
For `CC(=O)O[C@@]12CO[C@@H]1C[C@H](O)[C@@]1(C)C(=O)[C@H](O)C3=C(C)[C@@H](OC(=O)[C@H](O)[C@@H](NC(=O)OC(C)(C)C)c4ccccc4)C[C@@](O)([C@@H](OC(=O)c4ccccc4)[C@H]21)C3(C)C` [B, docetaxel, reference compound], the “CR (complete response)” value [2, 12] was 1/8, the “TVI % (tumor volume inhibition)” value [2, 12] was 73% and the MTD ([7]; CD1 nu/nu, mouse, in vivo, ip, docetaxel i.p. q4dx2, read-out: MTD) was 20 mg/kg. For the same compound, the “TVI % (tumor volume inhibition)” value ([8]; docetaxel 20 mg/kg i.p. q4dx2) was 63%.
For `CC(=O)O[C@H]1C(=O)[C@@]2(C)[C@H]([C@H](OC(=O)c3ccccc3)[C@]3(O)C[C@H](OC(=O)[C@H](O)[C@@H](NC(=O)c4ccccc4)c4ccccc4)C(C)=C1C3(C)C)[C@]1(OC(C)=O)CO[C@@H]1C[C@@H]2O` [B, paclitaxel, reference compound], the “T/C % (TW in treated mice/TW in control mice × 100)” value ([1]; paclitaxel 25 mg/kg i.v. q7dx3) was 55.2%, the “T/C % (TW in treated mice/TW in control mice × 100)” value ([1]; paclitaxel 33.3 mg/kg i.v. q7dx3) was 36.8% and the “T/C % (TW in treated mice/TW in control mice × 100)” value ([1]; paclitaxel 50 mg/kg i.v. q7dx3) was 38.6%. It also gave an MTD ([7]; female, CD1 nu/nu, mouse, in vivo, iv, paclitaxel i.v. q7dx3, read-out: tolerated dose (MTD)) of 50 mg/kg.
With carboplatin [reference compound] the MTD ([7]; carboplatin i.p. q4dx2) was 50 mg/kg, the “TVI % (tumor volume inhibition)” value [8, 13] was 59% and the “TVI % (tumor volume inhibition)” value [9, 13] was 34%.
